In US10383925B2, “Cancer antigen EEF2” (International Institute of Cancer Immunology, Inc., priority 2009, dated 2019):
Ends that are not written are not given here.

Tested on: CD8-positive T cells
Test: Interferon-γ activity, T cells with peptide-pulsed HLA-A*2402 molecule-expressing T2 cells
Type: cell-based
Conditions: HLA-A*2402 molecule-expressing T2 cells pulsed with peptide, 5 hours
Procedure: T cells were incubated together with HLA-A*2402 molecule-expressing T2 cells pulsed with eEF2 peptides (eEF2409-417, eEF2412-420 and eEF2701-709 peptides) in the presence of brefeldin A (Sigma) at 37° C. for 5 hours. After washing with PBS, CD3 and CD8 molecules which are cell surface antigens were stained by PerCP-conjugated anti-CD3 (BD Biosciences) and PE-conjugated anti-CD8 (Caltag, Burlingame, Calif.) antibodies on ice for 15 minutes. Subsequently, cells were fixed using Cytofix (BD Biosciences) on ice for 20 minutes, and intracellular IFN-γ was reacted with an FITC-conjugated anti-IFN-γ antibody (BD Biosciences) on ice for 30 minutes. Frequency of IFN-γ-positive cells present in CD8-positive T cells was analyzed using a flow cytometer.

Compound	interferon-γ activity (frequency of IFN-γ-positive cells in CD8-positive T cells)
AFGRVFSGL [eEF2412-420]	increase the interferon-γ activity
RFDVHDVTL [eEF2701-709]	increase the interferon-γ activity
RFYAFGRVF (listed as Homo sapiens) [eEF2409-417]	increase the interferon-γ activity

Tested on: colon cancer SW480 cells
Test: Cytotoxic activity (51Cr release) of peptide-induced CTL against endogenous eEF2 gene-expressing cells
Type: cell-based
Conditions: SW480 (HLA-A*2402 on surface) vs AZ-521 and MiaPaCa2 (no HLA-A*2402) as negative control

Compound	cytotoxic activity against endogenous eEF2 gene-expressing cells
AYLPVNESF [eEF2786-794]	specifically impair the cells which express the eEF2 and have the HLA-A*2402 molecule

Tested on: CTL from healthy donors having an HLA-A*0201 molecule
Test: Cytotoxic activity of CTL induced by HLA-A*0201-restricted eEF2 peptides
Type: cell-based, human
Conditions: PBMC of HLA-A*0201 donors stimulated with peptide; 6th day after the final peptide stimulation
Procedure: From T cell clones established as described above, CD8-positive T cells were purified using CD8 Microbeads to prepare effector cells. Subsequently, target cells were incubated with ^51Cr-labeled sodium chromate (Amersham Biosciences Corp., NJ) for 1 hour to label the cells. They were then mixed with the effector cells so that the ratio of cell count was 1:1, 3:1 and 9:1 of CTL/target cell (E/T) ratio, and the mixture was allowed to stand for 4 hours. The percentage of cells lysed was calculated according to the following equation: Specific lysis %=[(cpm experimental release−cpm spontaneous release)/(cpm maximal release−cpm spontaneous release)]×100. T2-2402 cells pulsed with an eEF2786-794 pep tide were used as the target cells, and T2-2402 cells not pulsed with the eEF2786-794 peptide (SEQ ID NO:7) as a negative control.
The experiments were carried out in much the same way as in the above Example 3. Thus, blood was taken from healthy donors having an HLA-A*0201 molecule, peripheral blood mononuclear cells were separated, and the first stimulation was carried out using the six candidate peptides (stimulator: self-PBMC). Subsequently, the peptide stimulation on the second day and later was carried out at intervals of 8 to 13 days (stimulator: allo B-LCL 3 mg/ml). Furthermore, IL-2 was added every 2 days after the second stimulation at a final concentration of 20 IU/ml. Cytotoxicity was measured on the 6th day after the final peptide stimulation.

Compound	cytotoxic activity
CC[C@H](C)[C@H](N)C(=O)N[C@@H](CC(C)C)C(=O)N[C@H](C(=O)N[C@@H](CC(=O)O)C(=O)N[C@H](C(=O)N[C@H](C(=O)N[C@@H](CCCCN)C(=O)NCC(=O)N[C@H](C(=O)O)C(C)C)[C@@H](C)O)[C@@H](C)CC)[C@@H](C)O [eEF2661-669]	increase of cytotoxic activity was observed
CC[C@H](C)[C@H](NC(=O)[C@@H]1CCCN1C(=O)[C@H](CC(=O)O)NC(=O)[C@H](CC(C)C)NC(=O)[C@H](CCSC)NC(=O)[C@@H](N)CC(C)C)C(=O)N[C@@H](Cc1ccccc1)C(=O)N[C@@H](CCCCN)C(=O)N[C@@H](CC(C)C)C(=O)O [eEF2292-300 2M9L]	increase cytotoxicity
CC[C@H](C)[C@H](NC(=O)[C@@H]1CCCN1C(=O)[C@H](CC(=O)O)NC(=O)[C@H](CC(C)C)NC(=O)[C@H](CCSC)NC(=O)[C@@H](N)CC(C)C)C(=O)N[C@@H](Cc1ccccc1)C(=O)N[C@@H](CCCCN)C(=O)N[C@H](C(=O)O)C(C)C [eEF2292-300 2M]	increase cytotoxicity
CC(C)C[C@H](NC(=O)[C@H](CCC(N)=O)NC(=O)[C@H](CS)NC(=O)[C@H](Cc1ccccc1)NC(=O)[C@@H](NC(=O)[C@H](CCCNC(=N)N)NC(=O)[C@@H]1CCCN1C(=O)[C@H](CC(C)C)NC(=O)[C@@H](N)CCCCN)[C@@H](C)O)C(=O)O [eEF2284-292]	increase of cytotoxic activity was observed
CC[C@H](C)[C@H](NC(=O)[C@@H]1CCCN1C(=O)[C@H](CC(=O)O)NC(=O)[C@H](CC(C)C)NC(=O)[C@H](CC(C)C)NC(=O)[C@@H](N)CC(C)C)C(=O)N[C@@H](Cc1ccccc1)C(=O)N[C@@H](CCCCN)C(=O)N[C@@H](CC(C)C)C(=O)O [eEF2292-300 2L9L]	increase cytotoxicity
CC[C@H](C)[C@H](NC(=O)[C@H](CCC(=O)O)NC(=O)[C@H](CC(N)=O)NC(=O)[C@H](CC(C)C)NC(=O)[C@@H](N)Cc1ccc(O)cc1)C(=O)N[C@@H](CCCCN)C(=O)N[C@@H](CC(=O)O)C(=O)N[C@@H](CO)C(=O)N[C@H](C(=O)O)C(C)C [eEF2671-679]	increase of cytotoxic activity was observed
CC(C)C[C@H](NC(=O)[C@H](CCCNC(=N)N)NC(=O)[C@H](CCCCN)NC(=O)[C@H](CC(C)C)NC(=O)CNC(=O)[C@H](CCC(=O)O)NC(=O)[C@@H](NC(=O)[C@H](CC(C)C)NC(=O)[C@@H](N)CCCCN)C(C)C)C(=O)O [eEF2519-527]	increase of cytotoxic activity was observed
CC[C@H](C)[C@H](NC(=O)[C@H](Cc1ccc(O)cc1)NC(=O)[C@H](CCSC)NC(=O)[C@H](CCSC)NC(=O)[C@@H](N)CC(C)C)C(=O)N[C@@H](CO)C(=O)N[C@@H](CCCCN)C(=O)N[C@@H](CCSC)C(=O)N[C@H](C(=O)O)C(C)C [eEF2394-402]	increase of cytotoxic activity was observed
CC[C@H](C)[C@H](NC(=O)[C@@H]1CCCN1C(=O)[C@H](CCC(=O)O)NC(=O)[C@H](CCSC)NC(=O)[C@H](CC(C)C)NC(=O)[C@@H](N)CCCNC(=N)N)C(=O)N[C@@H](Cc1ccc(O)cc1)C(=O)N[C@@H](CC(C)C)C(=O)N[C@H](C(=O)O)C(C)C [eEF2739-747]	increase of cytotoxic activity was observed
CC[C@H](C)[C@H](NC(=O)[C@@H]1CCCN1C(=O)[C@H](CC(=O)O)NC(=O)[C@H](CC(C)C)NC(=O)[C@H](CC(C)C)NC(=O)[C@@H](N)CC(C)C)C(=O)N[C@@H](Cc1ccccc1)C(=O)N[C@@H](CCCCN)C(=O)N[C@H](C(=O)O)C(C)C [eEF2292-300 2L]	increase cytotoxicity

Tested on: CD8-positive T cells of donors having the HLA-A*0206 molecule
Test: Interferon-γ production, donors having the HLA-A*0206 molecule
Type: cell-based
Conditions: not given
Procedure: T cells were incubated together with HLA-A*0201 molecule-expressing T2 cells pulsed with HLA-A*0201-restricted eEF2 peptides in the presence of brefeldin A (Sigma) at 37° C. for 5 hours. After washing with PBS, CD3 and CD8 molecules which are cell surface antigens were stained by PerCP-conjugated anti-CD3 (BD Biosciences) and PE-conjugated anti-CD8 (Caltag, Burlingame, Calif.) antibodies on ice for 15 minutes. Subsequently, cells were fixed using Cytofix (BD Biosciences) on ice for 20 minutes, and intracellular IFN-γ was reacted with an FITC-conjugated anti-IFN-γ antibody (BD Biosciences) on ice for 30 minutes. Frequency of IFN-γ-positive cells present in CD8-positive T cells was analyzed using a flow cytometer.
Next, evaluation was carried out as to whether the above 6 peptides and the eEF2292-300 peptide (SEQ ID NO:14) can bind to an HLA-A*0206 molecule and produce interferon-γ. The experiments were carried out in the same way as in the above method, except that donors having the HLA-A*0206 molecule were used.

Compound	production of interferon-γ
LILDPIFKV (listed as Homo sapiens) [eEF2292-300]	also serve as an HLA-A*0206-restricted peptide
